Reference: article PMC11791039, “A split intein and split luciferase-coupled system for detecting protein-protein interactions” (Molecular Systems Biology, 2024)
Where “and” joins values, the source holds several entries; their conditions need not be identical. Identical values can stand only once. Blank lines part the entries; values can stand above or below the compound they belong to.

Assays:
Type in all cases: cell-based
[1] = molecular target: T1, HRAS/RBD (Homo sapiens, UniProt P01112); experiment: SIMPL2 assay HRAS/RBD; details: 16 h; for normalized SIMPL2 signal HRAS/RBD (Fig. 3A source data): replicates 1-3
T1 construct: IC-β9 (GP41-1 split intein C fragment + tNLuc β9 peptide) (N); FLAG; expressed in transfected cells
T1 sequence (P01112 whole entry, the tested form may be a part): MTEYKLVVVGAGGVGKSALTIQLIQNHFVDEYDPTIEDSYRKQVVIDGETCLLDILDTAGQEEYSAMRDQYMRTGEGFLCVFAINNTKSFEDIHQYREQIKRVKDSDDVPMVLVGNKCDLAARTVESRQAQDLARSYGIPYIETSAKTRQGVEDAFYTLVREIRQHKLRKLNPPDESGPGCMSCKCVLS

[2] = molecular target: T2, EGFR(WT)/SHC1 (Homo sapiens, UniProt P00533); experiment: SIMPL2 assay EGFR(WT)/SHC1; details: for normalized SIMPL2 signal EGFR/SHC1 (Fig. 3A source data): 16 h, replicates 1-3
T2 construct: β10-IN (tNLuc β10 peptide + GP41-1 split intein N fragment) (C); V5; expressed in transfected cells
T2 sequence (P00533 25-1210): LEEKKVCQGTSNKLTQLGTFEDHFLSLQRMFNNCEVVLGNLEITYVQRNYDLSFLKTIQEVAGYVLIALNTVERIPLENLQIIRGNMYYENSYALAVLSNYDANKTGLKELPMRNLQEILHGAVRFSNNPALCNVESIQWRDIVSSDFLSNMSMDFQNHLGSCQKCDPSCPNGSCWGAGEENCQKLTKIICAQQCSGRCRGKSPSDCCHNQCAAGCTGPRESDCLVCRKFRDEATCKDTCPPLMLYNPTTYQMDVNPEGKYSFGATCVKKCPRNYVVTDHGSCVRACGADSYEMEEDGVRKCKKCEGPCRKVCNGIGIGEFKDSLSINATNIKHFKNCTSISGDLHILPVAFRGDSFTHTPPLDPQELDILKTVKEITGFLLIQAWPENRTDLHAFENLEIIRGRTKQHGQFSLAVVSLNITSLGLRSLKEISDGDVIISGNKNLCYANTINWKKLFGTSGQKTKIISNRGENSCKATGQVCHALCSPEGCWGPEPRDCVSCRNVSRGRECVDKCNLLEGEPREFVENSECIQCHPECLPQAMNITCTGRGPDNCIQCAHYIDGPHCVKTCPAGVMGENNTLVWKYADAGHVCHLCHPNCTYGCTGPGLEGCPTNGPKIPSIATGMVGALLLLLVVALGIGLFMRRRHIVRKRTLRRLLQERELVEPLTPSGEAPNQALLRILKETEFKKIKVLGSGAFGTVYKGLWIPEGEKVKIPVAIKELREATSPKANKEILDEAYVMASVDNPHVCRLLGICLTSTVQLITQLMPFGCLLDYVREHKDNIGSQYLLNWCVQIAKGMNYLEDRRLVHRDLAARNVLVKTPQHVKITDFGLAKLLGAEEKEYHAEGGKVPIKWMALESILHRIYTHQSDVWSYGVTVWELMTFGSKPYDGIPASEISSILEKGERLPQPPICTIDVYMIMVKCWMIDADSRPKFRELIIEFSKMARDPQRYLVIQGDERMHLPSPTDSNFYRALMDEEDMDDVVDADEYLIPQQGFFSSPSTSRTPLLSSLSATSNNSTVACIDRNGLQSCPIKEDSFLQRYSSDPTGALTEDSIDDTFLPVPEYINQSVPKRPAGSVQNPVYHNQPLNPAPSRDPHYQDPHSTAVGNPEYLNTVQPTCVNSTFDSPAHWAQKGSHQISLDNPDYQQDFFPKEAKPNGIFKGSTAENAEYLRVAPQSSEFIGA

[3] = molecular target: T3, KRAS(G12C)/RBD (Homo sapiens, UniProt P01116, G12C); experiment: SIMPL2 assay KRAS(G12C)/RBD; details: for SIMPL2 signal, KRAS(G12C)/RBD (Fig. 4A): replicates 1-4
T3 construct: IC-β9 (GP41-1 split intein C fragment + tNLuc β9 peptide) (N); FLAG; expressed in transfected cells

[4] = molecular target: T4, MDM2/MDM4 interaction (Homo sapiens, UniProt O15151+Q00987); experiment: SIMPL2 assay MDM2/MDM4; details: for SIMPL2 signal, MDM2/MDM4 (Fig. 4A): replicates 1-4
T4 construct: β10-IN (tNLuc β10 peptide + GP41-1 split intein N fragment) (C); V5; IC-β9 (GP41-1 split intein C fragment + tNLuc β9 peptide) (N); FLAG; expressed in transfected cells
T4 sequence (Q00987 whole entry, the tested form may be a part): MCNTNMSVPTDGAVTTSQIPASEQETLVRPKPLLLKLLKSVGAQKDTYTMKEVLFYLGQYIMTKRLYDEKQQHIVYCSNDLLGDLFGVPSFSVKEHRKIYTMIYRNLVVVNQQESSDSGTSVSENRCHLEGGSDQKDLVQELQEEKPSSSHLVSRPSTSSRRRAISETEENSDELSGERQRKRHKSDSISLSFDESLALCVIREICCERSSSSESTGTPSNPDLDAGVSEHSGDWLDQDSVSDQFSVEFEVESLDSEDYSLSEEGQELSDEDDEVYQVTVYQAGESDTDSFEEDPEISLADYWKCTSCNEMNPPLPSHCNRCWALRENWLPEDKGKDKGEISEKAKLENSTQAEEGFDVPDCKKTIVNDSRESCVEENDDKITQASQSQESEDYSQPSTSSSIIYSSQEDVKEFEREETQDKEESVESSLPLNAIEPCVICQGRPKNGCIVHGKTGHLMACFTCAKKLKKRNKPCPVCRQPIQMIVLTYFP
T4 sequence (O15151 whole entry, the tested form may be a part): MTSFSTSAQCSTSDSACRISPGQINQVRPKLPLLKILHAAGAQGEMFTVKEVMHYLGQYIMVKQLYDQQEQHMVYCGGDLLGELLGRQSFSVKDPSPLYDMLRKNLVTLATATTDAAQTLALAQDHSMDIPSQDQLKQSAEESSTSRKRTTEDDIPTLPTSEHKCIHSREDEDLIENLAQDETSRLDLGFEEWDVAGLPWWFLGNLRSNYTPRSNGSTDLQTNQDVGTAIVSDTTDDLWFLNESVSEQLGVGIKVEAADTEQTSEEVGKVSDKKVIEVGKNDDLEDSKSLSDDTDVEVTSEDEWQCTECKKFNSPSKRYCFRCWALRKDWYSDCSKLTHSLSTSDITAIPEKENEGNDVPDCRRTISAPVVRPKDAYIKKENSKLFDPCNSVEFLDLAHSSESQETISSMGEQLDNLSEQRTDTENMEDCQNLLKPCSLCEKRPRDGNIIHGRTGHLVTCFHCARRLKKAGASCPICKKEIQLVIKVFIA
Protocol: We next tested the system with molecular glues, which are small molecule compounds that induce target protein interaction. […] To clarify, the two protein molecules are anchored together through a pair of dimerized RO-5963 molecules. […] Therefore, its binding kinetics display a monophasic change.
Figure 4 Evaluation of SIMPL2 as a drug discovery tool using molecular glue and PROTACs. […] Samples were measured and normalized as described in Materials and Methods. […] The cells were then subjected to SIMPL2 luciferase measurement, and the raw values are plotted.
Stable cells of target protein pair were created using Cas9 CRISPR. To characterize PPI modulators, the cells were seeded in 384 well plate (10,000 cells/well) and incubated for 5 h. […] Average signal of wells without either deoxycycline or compound treatment was used as blank or ‘floor’ signal (SF). The average signal of wells with deoxycycline treatment but without compound treatment was used as maximal interaction or ‘ceiling’ (SC). SIMPL2 reading of each sample (Ssample) was normalized according to the formula S^*sample = (Ssample– SF)/(SC– SF) x 100%, in which S^*sample stands for normalized signal. The normalized data of inhibitor experiments were fitted into a four-parameter inhibitor-response model.

normalized SIMPL2 signal HRAS/RBD (Fig. 3A source data) ([1]; AMG510 0.013717 uM): 95.6644% and 96.1454% and 108.19%
normalized SIMPL2 signal HRAS/RBD (Fig. 3A source data) ([1]; AMG510 0.041152 uM): 82.7154% and 124.68% and 97.6847%
normalized SIMPL2 signal HRAS/RBD (Fig. 3A source data) ([1]; AMG510 0.37037 uM): 80.291% and 76.1158% and 82.6769%
normalized SIMPL2 signal HRAS/RBD (Fig. 3A source data) ([1]; AMG510 1.11111 uM): 79.0981% and 97.1459% and 96.2801%
normalized SIMPL2 signal HRAS/RBD (Fig. 3A source data) ([1]; AMG510 3.33333 uM): 91.6238% and 112.808% and 96.8766%
normalized SIMPL2 signal HRAS/RBD (Fig. 3A source data) ([1]; AMG510 10 uM): 106.247% and 100.629% and 127.854%
inhibition of HRAS/RBD interaction signal ([1]; control cells): no significant inhibition
normalized SIMPL2 signal EGFR/SHC1 (Fig. 3A source data) ([2]; AMG510 0.013717 uM): 102.175% and 103.017% and 94.8079%
normalized SIMPL2 signal EGFR/SHC1 (Fig. 3A source data) ([2]; AMG510 0.041152 uM): 78.9251% and 82.2027% and 70.7463%
normalized SIMPL2 signal EGFR/SHC1 (Fig. 3A source data) ([2]; AMG510 0.37037 uM): 78.0061% and 80.6558% and 79.5224%
normalized SIMPL2 signal EGFR/SHC1 (Fig. 3A source data) ([2]; AMG510 1.11111 uM): 94.2258% and 88.5129% and 91.668%
normalized SIMPL2 signal EGFR/SHC1 (Fig. 3A source data) ([2]; AMG510 3.33333 uM): 78.7566% and 76.4592% and 70.5625%
normalized SIMPL2 signal EGFR/SHC1 (Fig. 3A source data) ([2]; AMG510 10 uM): 53.0256% and 58.9069% and 63.3333%
inhibition of EGFR/SHC1 signal at high sotorasib concentrations (reviewer's reading of Fig. 3A) ([2]; peer review file, authors confirm for EGFR/SHC1 only): 40-50%
Compound: C=CC(=O)N1CCN(c2nc(=O)n(-c3c(C)ccnc3C(C)C)c3nc(-c4c(O)cccc4F)c(F)cc23)[C@@H](C)C1 [sotorasib, Sotorasib]

Compound: RO-5963
SIMPL2 signal, KRAS(G12C)/RBD (Fig. 4A) ([3]; RO-5963 0.013717 uM): 109.968 and 129.491
SIMPL2 signal, KRAS(G12C)/RBD (Fig. 4A) ([3]; RO-5963 0.041152 uM): 115.427 and 110.7 and 113.906 and 96.9775
SIMPL2 signal, KRAS(G12C)/RBD (Fig. 4A) ([3]; RO-5963 0.37037 uM): 127.273 and 113.795 and 114.951
SIMPL2 signal, KRAS(G12C)/RBD (Fig. 4A) ([3]; RO-5963 1.11111 uM): 136.524 and 105.719 and 127.623 and 137.333
SIMPL2 signal, KRAS(G12C)/RBD (Fig. 4A) ([3]; RO-5963 3.33333 uM): 110.236 and 106.312 and 130.946
SIMPL2 signal, KRAS(G12C)/RBD (Fig. 4A) ([3]; RO-5963 10 uM): 136.758 and 112.554 and 138.094 and 146.423
effect on KRAS(G12C)/RBD control interaction signal ([3]; doxycycline + compound 16 h, tested concentration range): not affected
concentration above which MDM2/MDM4 interaction declines (hook effect) ([4]; 16 h with doxycycline): above 3 μM
concentration above which MDM2/MDM4 interaction was observed ([4]; 16 h with doxycycline): above 0.3 μM
concentration of peak MDM2/MDM4 interaction ([4]; 16 h with doxycycline): 3 µM
SIMPL2 signal, MDM2/MDM4 (Fig. 4A) ([4]; RO-5963 0.013717 uM): 98.5373 and 90.6113 and 85.0033 and 102.575
SIMPL2 signal, MDM2/MDM4 (Fig. 4A) ([4]; RO-5963 0.041152 uM): 93.004 and 86.0501 and 89.041 and 96.2193
SIMPL2 signal, MDM2/MDM4 (Fig. 4A) ([4]; RO-5963 0.37037 uM): 155.514 and 142.28 and 150.579 and 141.083
SIMPL2 signal, MDM2/MDM4 (Fig. 4A) ([4]; RO-5963 1.11111 uM): 502.238 and 458.421 and 548.523 and 430.606
SIMPL2 signal, MDM2/MDM4 (Fig. 4A) ([4]; RO-5963 3.33333 uM): 934.354 and 877.9 and 842.009 and 825.259
SIMPL2 signal, MDM2/MDM4 (Fig. 4A) ([4]; RO-5963 10 uM): 374.451 and 365.777 and 368.394 and 378.937
